The results in this text go back to patent publication US20250235543A1, “MODIFIED PROTEINS AND PROTEIN DEGRADERS” (Cullgen (Shanghai), Inc., priority 2021, published 2025).

The test system of one experiment is cyclin D1. Put plainly: Cyclin D1 percentage degradation in Calu-1 cells (immunoblotting). Format: cell-based. The conditions noted are these: 16 hours. The procedure, abridged:
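Cyclin D1 degradation was assessed by western blot. Clarified lysates, obtained by RIPA lysis with inhibitors and centrifugation at 13,000 rpm, were normalized by BCA protein assay and separated by SDS-PAGE. Bands were detected with Western ECL Substrate on a Bio-Rad ChemiDoc MP Imaging system and quantified in Image Lab software to derive percentage degradation.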
For orientation: In western blotting, separated proteins are transferred to a membrane and probed.

Another experiment deals with T1, CDK4 (Homo sapiens, UniProt P11802).
T1 construct: endogenous in cells; host or cells: Calu-1
Put plainly: CDK4 percentage degradation in Calu-1 cells (immunoblotting). Format: cell-based. The conditions noted are these: for inhibition at 0.2 µM: read-out: CDK4 Degradation (200 nM). The procedure, abridged:
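CDK4 degradation was measured by immunoblotting. Cells were washed in cold PBS and lysed in RIPA buffer with inhibitors for 30 min at 4° C., then spun at 13,000 rpm to clear. After BCA protein determination, lysates were heated at 99° C. for 5 min in Laemmli buffer, resolved on SDS-PAGE, imaged on a ChemiDoc MP with ECL substrate, and band intensities quantified.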

Where two headings read alike, the source gives them in different places.

T1 sequence (P11802 2-303 limits assumed): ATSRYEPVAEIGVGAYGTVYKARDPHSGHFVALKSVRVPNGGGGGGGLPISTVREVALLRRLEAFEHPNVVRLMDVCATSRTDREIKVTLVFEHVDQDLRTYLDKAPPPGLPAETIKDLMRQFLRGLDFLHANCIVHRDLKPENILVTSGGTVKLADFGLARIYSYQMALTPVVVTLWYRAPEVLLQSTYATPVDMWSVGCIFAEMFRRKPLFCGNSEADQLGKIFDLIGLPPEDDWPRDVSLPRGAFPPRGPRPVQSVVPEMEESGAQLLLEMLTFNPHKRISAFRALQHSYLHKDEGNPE
T1 sequence (P24385 whole entry partner): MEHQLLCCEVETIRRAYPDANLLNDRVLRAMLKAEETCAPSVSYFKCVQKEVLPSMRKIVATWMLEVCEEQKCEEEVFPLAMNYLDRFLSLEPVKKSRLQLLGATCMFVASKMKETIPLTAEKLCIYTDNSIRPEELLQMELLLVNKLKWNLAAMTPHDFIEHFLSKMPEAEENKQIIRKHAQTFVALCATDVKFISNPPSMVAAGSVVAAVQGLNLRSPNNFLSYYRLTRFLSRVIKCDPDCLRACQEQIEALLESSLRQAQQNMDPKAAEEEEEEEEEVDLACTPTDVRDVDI
T1 sequence (Q16531 2-1140 limits assumed, further chain): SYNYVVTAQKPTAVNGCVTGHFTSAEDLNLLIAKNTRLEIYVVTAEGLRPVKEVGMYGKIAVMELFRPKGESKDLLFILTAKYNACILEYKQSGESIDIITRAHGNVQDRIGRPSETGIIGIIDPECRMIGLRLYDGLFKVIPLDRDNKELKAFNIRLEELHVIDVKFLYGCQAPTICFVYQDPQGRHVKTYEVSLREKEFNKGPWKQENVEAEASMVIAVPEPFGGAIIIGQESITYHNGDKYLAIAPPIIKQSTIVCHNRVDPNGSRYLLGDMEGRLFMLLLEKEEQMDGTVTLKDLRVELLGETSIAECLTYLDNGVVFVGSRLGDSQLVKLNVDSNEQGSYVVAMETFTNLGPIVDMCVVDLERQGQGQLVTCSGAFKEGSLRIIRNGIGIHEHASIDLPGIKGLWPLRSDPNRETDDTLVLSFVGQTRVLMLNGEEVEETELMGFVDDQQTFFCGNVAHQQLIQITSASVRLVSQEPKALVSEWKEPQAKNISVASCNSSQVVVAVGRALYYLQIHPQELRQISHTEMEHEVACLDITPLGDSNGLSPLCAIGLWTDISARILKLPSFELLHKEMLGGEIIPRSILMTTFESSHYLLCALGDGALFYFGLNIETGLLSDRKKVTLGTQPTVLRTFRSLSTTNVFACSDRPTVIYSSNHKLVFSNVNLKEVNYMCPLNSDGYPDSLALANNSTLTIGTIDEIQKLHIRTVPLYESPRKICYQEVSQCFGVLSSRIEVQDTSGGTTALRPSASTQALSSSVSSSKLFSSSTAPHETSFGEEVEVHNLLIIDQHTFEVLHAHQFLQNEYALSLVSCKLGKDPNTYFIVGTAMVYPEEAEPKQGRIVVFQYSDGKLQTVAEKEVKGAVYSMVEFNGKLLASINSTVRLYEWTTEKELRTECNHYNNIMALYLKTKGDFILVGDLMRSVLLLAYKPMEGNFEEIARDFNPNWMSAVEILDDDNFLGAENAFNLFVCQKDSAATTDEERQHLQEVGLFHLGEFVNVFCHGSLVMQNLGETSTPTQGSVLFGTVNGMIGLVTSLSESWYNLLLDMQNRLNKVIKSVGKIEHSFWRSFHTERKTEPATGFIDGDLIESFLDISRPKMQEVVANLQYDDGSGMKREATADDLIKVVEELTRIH

For the molecule `CC(=O)c1c(C)c2cnc(Nc3ccc(N4CCN(CC(=O)NCCCCCNc5cc(F)ccc5C(=O)Nc5ccc(N(C)C)nn5)CC4)cn3)nc2n(C2CCCC2)c1=O` [CPD-372, 2-((5-(2-(4-(6-((6-Acetyl-8-cyclopentyl-5-methyl-7-oxo-7,8-dihydropyrido[2,3-d]pyrimidin-2-yl)amino)pyridin-3-yl)piperazin-1-yl)acetamido)pentyl)amino)-N-(6-(dimethylamino)pyridazin-3-yl)-4-fluorobenzamide], the “CyclinD1 Degradation (200 nM)” value in the experiment with cyclin D1 is listed as “A (protein percentage degradation >=80%)”. Also, the inhibition at 0.2 µM on CDK4 (Calu-1 cells, 200 nM, 16 hours) was 50 to 80%.

Regarding `CC(=O)c1c(C)c2cnc(Nc3ccc(N4CCN(C(=O)CCCCCCC(=O)Nc5ccccc5C(=O)Nc5nc(C)c(C)s5)CC4)cn3)nc2n(C2CCCC2)c1=O` [CPD-161, 2-(8-(4-(6-((6-Acetyl-8-cyclopentyl-5-methyl-7-oxo-7,8-dihydropyrido[2,3-d]pyrimidin-2-yl)amino)pyridin-3-yl)piperazin-1-yl)-8-oxooctanamido)-N-(4,5-dimethylthiazol-2-yl)benzamide], in the experiment with cyclin D1, the “CyclinD1 Degradation (200 nM)” value was “D (protein percentage degradation <30%)”. Besides, the inhibition at 0.2 µM at CDK4 (Calu-1, 16 h) is below 30%.

On to `CC(=O)c1c(C)c2cnc(Nc3ccc(N4CCN(CC(=O)NCCCCCCCC(=O)Nc5ccccc5C(=O)Nc5nc(C)c(C)s5)CC4)cn3)nc2n(C2CCCC2)c1=O` [CPD-136, 2-(8-(2-(4-(6-((6-Acetyl-8-cyclopentyl-5-methyl-7-oxo-7,8-dihydropyrido[2,3-d]pyrimidin-2-yl)amino)pyridin-3-yl)piperazin-1-yl)acetamido)octanamido)-N-(4,5-dimethylthiazol-2-yl)benzamide], for which the “CyclinD1 Degradation (200 nM)” value with cyclin D1 is recorded as “A (protein percentage degradation >=80%)”. At CDK4 (Calu-1 cells, 200 nM, 16 hours), the inhibition at 0.2 µM fell in the range of 50 to 80%.

Consider `CC(=O)c1c(C)c2cnc(Nc3ccc(N4CCN(CC(=O)NCCOCCOCCNc5cccc(C(=O)Nc6nc(C)c(C)s6)c5C)CC4)cn3)nc2n(C2CCCC2)c1=O` [CPD-104, 3-((2-(2-(2-(2-(4-(6-((6-Acetyl-8-cyclopentyl-5-methyl-7-oxo-7,8-dihydropyrido[2,3-d]pyrimidin-2-yl)amino)pyridin-3-yl)piperazin-1-yl)acetamido)ethoxy)ethoxy)ethyl)amino)-N-(4,5-dimethylthiazol-2-yl)-2-methylbenzamide], for which the “CyclinD1 Degradation (200 nM)” value in the experiment on cyclin D1 was “A (protein percentage degradation >=80%)”. The inhibition at 0.2 µM at CDK4 (Calu-1 cells, 200 nM, 16 hours) is 30 to 50%.

Take `CC(=O)c1c(C)c2cnc(Nc3ccc(N4CCN(CC(=O)NCCOCCOCCOCCOCCOCCNc5ccc(C(=O)Nc6ccccc6)c(C)c5)CC4)cn3)nc2n(C2CCCC2)c1=O` [CPD-027, 4-((1-(4-(6-((6-Acetyl-8-cyclopentyl-5-methyl-7-oxo-7,8-dihydropyrido[2,3-d]pyrimidin-2-yl)amino)pyridin-3-yl)piperazin-1-yl)-2-oxo-6,9,12,15,18-pentaoxa-3-azaicosan-20-yl)amino)-2-methyl-N-phenylbenzamide]: the “CyclinD1 Degradation (200 nM)” value in the experiment on cyclin D1 is “D (protein percentage degradation <30%)”. Moreover, at CDK4 (Calu-1, 16 h), the inhibition at 0.2 µM was below 30%.

Turning to `Cc1nc(NC(=O)c2ccccc2NC(=O)CCCCCCCCNC(=O)CN2CCN(c3ccc(Nc4ncc(F)c(-c5cc(F)c6nc(C)n(C(C)C)c6c5)n4)nc3)CC2)sc1C` [CPD-307, N-(4,5-Dimethylthiazol-2-yl)-2-(9-(2-(4-(6-((5-fluoro-4-(4-fluoro-1-isopropyl-2-methyl-1H-benzo[d]imidazol-6-yl)pyrimidin-2-yl)amino)pyridin-3-yl)piperazin-1-yl)acetamido)nonanamido)benzamide], the “CyclinD1 Degradation (10 μM)” value in the experiment with cyclin D1 (10 μM) was “D (protein percentage degradation < 30%)”. Also, at CDK4 (Calu-1 cells, 10 μM, 16 hours, read-out: CDK4 Degradation (10 μM)), the inhibition at 10 µM is below 30%.

Consider `CC(=O)c1c(C)c2cnc(Nc3ccc(N4CCN(CC(=O)NCCCCC(=O)Nc5ccccc5C(=O)Nc5nc(C)c(C)s5)CC4)cn3)nc2n(C2CCCC2)c1=O` [CPD-174, 2-(5-(2-(4-(6-((6-Acetyl-8-cyclopentyl-5-methyl-7-oxo-7,8-dihydropyrido[2,3-d]pyrimidin-2-yl)amino)pyridin-3-yl)piperazin-1-yl)acetamido)pentanamido)-N-(4,5-dimethylthiazol-2-yl)benzamide], for which, in the experiment on cyclin D1, the “CyclinD1 Degradation (200 nM)” value is recorded as “A (protein percentage degradation >=80%)”. Besides, the inhibition at 0.2 µM at CDK4 (Calu-1 cells, 200 nM, 16 hours) was above 80%.

For the molecule `CC(=O)c1c(C)c2cnc(Nc3ccc(N4CCN(C(=O)CCCCCCCC(=O)Nc5ccccc5C(=O)Nc5nc(C)c(C)s5)CC4)cn3)nc2n(C2CCCC2)c1=O` [CPD-160, 2-(9-(4-(6-((6-Acetyl-8-cyclopentyl-5-methyl-7-oxo-7,8-dihydropyrido[2,3-d]pyrimidin-2-yl)amino)pyridin-3-yl)piperazin-1-yl)-9-oxononanamido)-N-(4,5-dimethylthiazol-2-yl)benzamide], the “CyclinD1 Degradation (200 nM)” value in the experiment with cyclin D1 was “C (protein percentage degradation <50%, and >=30%)”. In addition, the inhibition at 0.2 µM on CDK4 (Calu-1, 16 h) fell in the range of 50 to 80%.

For the molecule `COc1ccc(NC(=O)c2ccccc2NC(=O)CCCCN2CCC(NC(=O)CN3CCN(c4ccc(Nc5ncc6c(C)c(C(C)=O)c(=O)n(C7CCCC7)c6n5)nc4)CC3)CC2)nn1` [CPD-346, 2-(5-(4-(2-(4-(6-((6-Acetyl-8-cyclopentyl-5-methyl-7-oxo-7,8-dihydropyrido[2,3-d]pyrimidin-2-yl)amino)pyridin-3-yl)piperazin-1-yl)acetamido)piperidin-1-yl)pentanamido)-N-(6-methoxypyridazin-3-yl)benzamide], the “CyclinD1 Degradation (200 nM)” value in the experiment on cyclin D1 is listed as “A (protein percentage degradation >=80%)”. In addition, the inhibition at 0.2 µM at CDK4 (Calu-1 cells, 200 nM, 16 hours) fell in the range of 50 to 80%.

Turning to `CC(=O)c1c(C)c2cnc(Nc3ccc(N4CCN(CC(=O)NCCOCCOCCC(=O)Nc5ccccc5C(=O)Nc5cc(C)n(C)n5)CC4)cn3)nc2n(C2CCCC2)c1=O` [CPD-052, 2-(3-(2-(2-(2-(4-(6-((6-Acetyl-8-cyclopentyl-5-methyl-7-oxo-7,8-dihydropyrido[2,3-d]pyrimidin-2-yl)amino)pyridin-3-yl)piperazin-1-yl)acetamido)ethoxy)ethoxy)propanamido)-N-(1,5-dimethyl-1H-pyrazol-3-yl)benzamide], the “CyclinD1 Degradation (200 nM)” value in the experiment on cyclin D1 is recorded as “A (protein percentage degradation >=80%)”. Moreover, the inhibition at 0.2 µM on CDK4 (Calu-1 cells, 200 nM, 16 hours) lay within 50 to 80%.

With `CC(=O)c1c(C)c2cnc(Nc3ccc(N4CCN(CC(=O)NCCOCCOCCOCCOCCOCCNc5ccc(C(=O)Nc6ncc(C(F)(F)F)s6)c(C)c5)CC4)cn3)nc2n(C2CCCC2)c1=O` [CPD-003, 4-((1-(4-(6-((6-Acetyl-8-cyclopentyl-5-methyl-7-oxo-7,8-dihydropyrido[2,3-d]pyrimidin-2-yl)amino)pyridin-3-yl)piperazin-1-yl)-2-oxo-6,9,12,15,18-pentaoxa-3-azaicosan-20-yl)amino)-2-methyl-N-(5-(trifluoromethyl)thiazol-2-yl)benzamide], in the experiment on cyclin D1, the “CyclinD1 Degradation (200 nM)” value is “D (protein percentage degradation <30%)”. Further, at CDK4 (Calu-1 cells, 200 nM, 16 hours), the inhibition at 0.2 µM is below 30%.

Take `CC(=O)c1c(C)c2cnc(Nc3ccc(N4CCN(CC(=O)NCCOCCOCCOCCOCCOCCNc5ccc(C(=O)Nc6ncc(F)s6)c(C)c5)CC4)cn3)nc2n(C2CCCC2)c1=O` [CPD-028, 4-((1-(4-(6-((6-Acetyl-8-cyclopentyl-5-methyl-7-oxo-7,8-dihydropyrido[2,3-d]pyrimidin-2-yl)amino)pyridin-3-yl)piperazin-1-yl)-2-oxo-6,9,12,15,18-pentaoxa-3-azaicosan-20-yl)amino)-N-(5-fluorothiazol-2-yl)-2-methylbenzamide]: in the experiment on cyclin D1, the “CyclinD1 Degradation (200 nM)” value is on record as “D (protein percentage degradation <30%)”. The inhibition at 0.2 µM at CDK4 (Calu-1 cells, 200 nM, 16 hours) is below 30%.

Take `CC(=O)c1c(C)c2cnc(Nc3ccc(N4CCN(C(=O)CNc5ccc(C)c(C(=O)Nc6nc(C)c(C)s6)c5)CC4)cn3)nc2n(C2CCCC2)c1=O` [CPD-135, 5-((2-(4-(6-((6-Acetyl-8-cyclopentyl-5-methyl-7-oxo-7,8-dihydropyrido[2,3-d]pyrimidin-2-yl)amino)pyridin-3-yl)piperazin-1-yl)-2-oxoethyl)amino)-N-(4,5-dimethylthiazol-2-yl)-2-methylbenzamide]: the “CyclinD1 Degradation (200 nM)” value in the experiment on cyclin D1 was “D (protein percentage degradation <30%)”. In addition, at CDK4 (Calu-1, 16 h), the inhibition at 0.2 µM was below 30%.

With `CC(=O)c1c(C)c2cnc(Nc3ccc(N4CCN(CC(=O)NCCOCCOCCC(=O)Nc5ccccc5C(=O)Nc5ccn(C)n5)CC4)cn3)nc2n(C2CCCC2)c1=O` [CPD-068, 2-(3-(2-(2-(2-(4-(6-((6-Acetyl-8-cyclopentyl-5-methyl-7-oxo-7,8-dihydropyrido[2,3-d]pyrimidin-2-yl)amino)pyridin-3-yl)piperazin-1-yl)acetamido)ethoxy)ethoxy)propanamido)-N-(1-methyl-1H-pyrazol-3-yl)benzamide], the “CyclinD1 Degradation (200 nM)” value in the experiment on cyclin D1 is recorded as “A (protein percentage degradation >=80%)”. Further, the inhibition at 0.2 µM on CDK4 (Calu-1 cells, 200 nM, 16 hours) was 50 to 80%.

Take `CC(=O)c1c(C)c2cnc(Nc3ccc(N4CCN(C(=O)CC(=O)Nc5ccccc5C(=O)Nc5nc(C)c(C)s5)CC4)cn3)nc2n(C2CCCC2)c1=O` [CPD-158, 2-(3-(4-(6-((6-Acetyl-8-cyclopentyl-5-methyl-7-oxo-7,8-dihydropyrido[2,3-d]pyrimidin-2-yl)amino)pyridin-3-yl)piperazin-1-yl)-3-oxopropanamido)-N-(4,5-dimethylthiazol-2-yl)benzamide]: the “CyclinD1 Degradation (200 nM)” value with cyclin D1 was “D (protein percentage degradation <30%)”. For the same molecule, at CDK4 (Calu-1, 16 h), the inhibition at 0.2 µM is below 30%.
